Series [1] deals with JAK2 kinase (wild type, JAK2^WT) (Homo sapiens (Human), UniProt O60674). In words: HTRF assay for enzymatic activity (IC50), JAK2 wild type. In kind it is biochemical. The note with it: ATP at Km, 120 min, 23 °C. As to the method: 1. Assay for Enzymatic Activity (IC50) of Compounds
A testing platform for kinase activity of JAK2 (wild type and V617F mutant type) was established based on Homogeneous Time-Resolved Fluorescence (HTRF) assay, and the activities of the compounds were tested using the platform. The compounds were subjected to three-fold gradient dilutions with 100% DMSO with a starting concentration of 1 mM (11 dilutions in total). 4 μL of each dilution was added to 96 μL of reaction buffer (50 mM HEPES, pH 7.4, 10 mM MgCl2, 1 mM EGTA, 0.01% Tween-20, 0.005% BAS, 2 mM DTT) and mixed homogeneously. […] The mixture was mixed homogeneously by centrifugation. […] The plate was incubated in the incubator for 1 hr, and then the fluorescence values were read on Envision (available from PerkinElmer). […] The enzymatic activity was representd by a ratio of the two readout at the two emission wavelengths. The enzymatic activity for each compound was tested at 11 concentrations, and IC50 values of the compounds were obtained by calculating the data using GraFit6.0 software (Erithacus Software). 2. Assay for cell proliferation activity (IC50) of compounds

Series [2] can be described thus: Pharmacokinetic assay in adult female SD rats (30 mg/kg oral). In kind it is in vivo.
Series [3] is described as follows: Pharmacokinetic assay in adult beagles (IV 5 mg/kg, PO 10 mg/kg). It is filed as in vivo. The settings on record: for half-life / AUC(0-inf) / Cmax / Tmax: beagle, dog, plasma; for AUC(0-inf): read-out: AUCINF—obs. The text has this:
Pharmacokinetic Assay in Adult Beagles

Where [4] appears, read: both sexes, IV 5 mg/kg, average.
[5] abbreviates: both sexes, PO 10 mg/kg, average.

Molecules are shown by their SMILES. Read-outs that look alike come from different tables or passages of the source.

JAK2 kinase (wild type, JAK2^WT), sequence (O60674 whole entry): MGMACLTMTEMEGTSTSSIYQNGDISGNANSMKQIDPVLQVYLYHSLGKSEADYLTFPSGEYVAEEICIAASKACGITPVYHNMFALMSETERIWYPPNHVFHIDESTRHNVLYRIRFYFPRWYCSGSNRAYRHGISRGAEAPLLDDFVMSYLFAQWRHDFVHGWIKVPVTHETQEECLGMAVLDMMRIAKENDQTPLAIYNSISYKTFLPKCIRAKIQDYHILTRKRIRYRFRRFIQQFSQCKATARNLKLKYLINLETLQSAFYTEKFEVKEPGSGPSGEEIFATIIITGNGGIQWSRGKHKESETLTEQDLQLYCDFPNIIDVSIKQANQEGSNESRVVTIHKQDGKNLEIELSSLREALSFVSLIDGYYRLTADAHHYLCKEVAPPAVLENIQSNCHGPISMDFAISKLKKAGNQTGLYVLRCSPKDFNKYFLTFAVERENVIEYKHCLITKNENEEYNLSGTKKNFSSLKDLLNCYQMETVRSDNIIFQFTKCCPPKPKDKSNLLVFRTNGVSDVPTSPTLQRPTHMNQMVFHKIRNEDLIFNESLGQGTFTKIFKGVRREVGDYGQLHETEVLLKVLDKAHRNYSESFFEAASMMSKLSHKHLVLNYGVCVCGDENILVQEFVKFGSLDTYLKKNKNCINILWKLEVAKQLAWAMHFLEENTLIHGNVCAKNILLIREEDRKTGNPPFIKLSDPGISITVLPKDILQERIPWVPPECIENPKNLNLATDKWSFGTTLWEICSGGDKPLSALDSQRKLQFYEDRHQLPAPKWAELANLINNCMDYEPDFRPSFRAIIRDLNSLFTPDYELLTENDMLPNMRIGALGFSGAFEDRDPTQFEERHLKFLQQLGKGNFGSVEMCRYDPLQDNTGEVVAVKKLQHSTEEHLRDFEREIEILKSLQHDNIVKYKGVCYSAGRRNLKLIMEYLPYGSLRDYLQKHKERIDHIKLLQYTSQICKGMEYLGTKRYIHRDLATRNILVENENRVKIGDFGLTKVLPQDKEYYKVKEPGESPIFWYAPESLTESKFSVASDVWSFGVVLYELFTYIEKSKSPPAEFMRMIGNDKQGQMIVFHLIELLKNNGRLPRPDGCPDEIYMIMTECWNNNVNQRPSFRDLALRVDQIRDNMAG

By IC50 is commonly meant the concentration needed to halve the response being measured. Higher therefore signals weaker potency. The molecule `N#CCC(C1CCCC1)n1ncc(-c2ncnc3[nH]ccc23)c1N` (stereo not shown) [Example 3, 3-[5-amino-4-(7H-pyrrolo[2,3-d]pyrimidin-4-yl)-1H-pyrazol-1-yl]-3-cyclopentylpropanenitrile] had an IC50 in series [1] below 20 nM.
A word on the Cmax: it is the peak of the concentration-time curve. A word on the Tmax: it is the time from dosing to the highest level. As usually defined, the half-life is the time in which the quantity being followed falls by half. High values mean slow loss, low ones fast loss. Consider `N#CC[C@H](C1CCCC1)n1cc(-c2ncnc3[nH]ccc23)c(N)n1` [Example 5, (3R)-3-[3-amino-4-(7H-pyrrolo[2,3-d]pyrimidin-4-yl)-1H-pyrazol-1-yl]-3-cyclopentylpropanenitrile], for which the IC50 in series [1] is below 20 nM. In series [2], the AUCINFobs is 6316 ng·h/mL, the Cmax is 2204 ng/mL, the Tmax turned out to be 0.58 h and the t1/2 is 2.20 h. In series [3] (IV 5 mg/kg, average), this molecule yielded a Cl_obs of 8.82 mL/min/kg and a Vss_obs of 1.974 L/kg. Moreover, in series [3] (IV 5 mg/kg, female), the Cl_obs was 7.37 mL/min/kg, the Vss_obs amounted to 1.86 L/kg, the half-life was 3.65 h and the AUC(0-inf) stood at 11500 ng·h/mL. Also, in series [3] (IV 5 mg/kg, male), the Cl_obs amounted to 10.3 mL/min/kg, the Vss_obs is 2.089 L/kg, the half-life is 3.64 h and the AUC(0-inf) was 8190 ng·h/mL. Further, the F in series [3] (PO 10 mg/kg, average) amounted to 114%. Moreover, in series [3] (PO 10 mg/kg, female), the F stood at 119%, the Cmax amounted to 3980 ng/mL, the Tmax was 1.13 h and the half-life is 3.03 h. Besides, the AUC(0-inf) in series [3] (PO 10 mg/kg, female) was determined as 27400 ng·h/mL. In addition, in series [3] (PO 10 mg/kg, male), the F stood at 107%, the Cmax was found to be 3830 ng/mL, the Tmax is 0.25 h and the half-life was 3.04 h. The AUC(0-inf) in series [3] (PO 10 mg/kg, male) was determined as 17500 ng·h/mL. Also, in series [3] (setting [4]), the half-life was 3.64 h and the AUC(0-inf) came out at 9850 ng·h/mL. Also, in series [3] (setting [5]), the Cmax is 3900 ng/mL, the Tmax came out at 0.69 h, the half-life was 3.03 h and the AUC(0-inf) came to 22500 ng·h/mL.
`N#CC[C@@H](C1CCCC1)n1cc(-c2ncnc3[nH]ccc23)c(N)n1` [Example 6, (3S)-3-[3-amino-4-(7H-pyrrolo[2,3-d]pyrimidin-4-yl)-1H-pyrazol-1-yl]-3-cyclopentylpropanenitrile] had an IC50 in series [1] below 20 nM.
With `CC(=O)Nc1nn(C(CC#N)C2CCCC2)cc1-c1ncnc2[nH]ccc12` (stereo not shown) [Example 9, N-[1-(2-cyano-1-cyclopentylethyl)-4-(7H-pyrrolo[2,3-d]pyrimidin-4-yl)-1H-pyrazol-3-yl]acetamide], the IC50 in series [1] is below 20 nM.
With `N#CCC(C1CCCC1)n1cc(-c2ncnc3[nH]ccc23)c(NCCN2CCOCC2)n1` (stereo not shown) [Example 11, 3-cyclopentyl-3-[3-(2-morpholinylethylamino)-4-(7H-pyrrolo[2,3-d]pyrimidin-4-yl)-1H-pyrazol-1-yl]propionitrile], the IC50 in series [1] is below 20 nM.
With `N#CCC(C1CCCC1)n1cc(-c2ncnc3[nH]ccc23)c(NC(=O)CN2CCOCC2)n1` (stereo not shown) [Example 12, N-[1-(2-cyano-1-cyclopentylethyl)-4-(7H-pyrrolo[2,3-d]pyrimidin-4-yl)-1H-pyrazol-3-yl]-2-morpholinylacetamide], the IC50 in series [1] was below 20 nM.
The same measure, in the same setting: in the case of `N#CCC(C1CCCC1)n1cc(-c2ncnc3[nH]ccc23)c(NCCC(=O)N2CCOCC2)n1` (stereo not shown) [Example 13, 3-cyclopentyl-3-[3-(3-morpholinyl-3-oxopropylamino)-4-(7H-pyrrolo[2,3-d]pyrimidin-4-yl)-1H-pyrazol-1-yl]propionitrile] it was below 20 nM; in that of `N#CCC(C1CCCC1)n1cc(-c2ncnc3[nH]ccc23)c(NCC(=O)N2CCOCC2)n1` (stereo not shown) [Example 14, 3-cyclopentyl-3-[3-(2-morpholinyl-2-oxoethylamino)-4-(7H-pyrrolo[2,3-d]pyrimidin-4-yl)-1H-pyrazol-1-yl]propionitrile], below 20 nM.
As for `CCOC(=O)CCC(=O)Nc1nn(C(CC#N)C2CCCC2)cc1-c1ncnc2[nH]ccc12` (stereo not shown) [Example 15, Ethyl 4-[1-(2-cyano-1-cyclopentylethyl)-4-(7H-pyrrolo[2,3-d]pyrimidin-4-yl)-1H-pyrazol-3-ylamino]-4-oxobutanoate], the IC50 in series [1] was below 20 nM.
Still for that read-out and setting: in the case of `N#CCC(C1CCCC1)n1cc(-c2ncnc3[nH]ccc23)c(N2C(=O)CCC2=O)n1` (stereo not shown) [Example 16, 3-cyclopentyl-3-[3-(succinimid-1-yl)-4-(7H-pyrrolo[2,3-d]pyrimidin-4-yl)-1H-pyrazol-1-yl]propionitrile] it was below 100 nM; in that of `N#CCC(C1CCCC1)n1cc(-c2ncnc3[nH]ccc23)c(NC2CC(C(=O)N3CCOCC3)C2)n1` (stereo not shown) [Example 17, 3-[3-(3-morpholin-4-carbonyl)cyclobutylamino-4-(7H-pyrrolo[2,3-d]pyrimidin-4-yl)-1H-pyrazolyl]-3-cyclopentylpropanenitrile], below 20 nM.
`N#CCC(C1CCCC1)n1cc(-c2ncnc3[nH]cc(Br)c23)c(Br)n1` (stereo not shown) [Example 18, 3-[3-bromo-4-(5-bromo-7H-pyrrolo[2,3-d]pyrimidin-4-yl)-1H-pyrazol-1-yl]-3-cyclopentylpropanenitrile] had an IC50 in series [1] below 1000 nM.
On the same count and under the same terms, the same measure for `N#CCC(C1CCCC1)n1cc(-c2ncnc3[nH]ccc23)c(Br)n1` (stereo not shown) [Example 19, 3-[3-bromo-4-(7H-pyrrolo[2,3-d]pyrimidin-4-yl)-1H-pyrazol-1-yl]-3-cyclopentylpropanenitrile]: below 20 nM; for `N#CCC(C1CCCC1)n1cc(-c2ncnc3[nH]ccc23)c(C(N)=O)n1` (stereo not shown) [Example 24, 1-(2-cyano-1-cyclopentylethyl)-4-(7H-pyrrolo[2,3-d]pyrimidin-4-yl)-1H-pyrazol-3-formamide]: below 20 nM; for `CNC(=O)c1nn(C(CC#N)C2CCCC2)cc1-c1ncnc2[nH]ccc12` (stereo not shown) [Example 25, 1-(2-cyano-1-cyclopentylethyl)-N-methyl-4-(7H-pyrrolo[2,3-d]pyrimidin-4-yl)-1H-pyrazol-3-formamide]: below 20 nM.
Molecule `N#CCC(C1CCCC1)n1cc(-c2ncnc3[nH]ccc23)c(C(=O)NCCN)n1` (stereo not shown) [Example 26, N-(2-aminoethyl)-1-(2-cyano-1-cyclopentylethyl)-4-(7H-pyrrolo[2,3-d]pyrimidin-4-yl)-1H-pyrazol-3-formamide] showed an IC50 in series [1] below 20 nM.
Regarding `N#CCC(C1CCCC1)n1cc(-c2ncnc3[nH]ccc23)c(C#N)n1` (stereo not shown) [Example 27, 1-(2-cyano-1-cyclopentylethyl)-4-(7H-pyrrolo[2,3-d]pyrimidin-4-yl)-1H-pyrazol-3-carbonitrile], the IC50 in series [1] was below 20 nM.
On to `N#CCC(C1CCCC1)n1cc(-c2ncnc3[nH]ccc23)c(CO)n1` (stereo not shown) [Example 28, 3-cyclopentyl-3-[3-(hydroxymethyl)-4-(7H-pyrrolo[2,3-d]pyrimidin-4-yl)-1H-pyrazol-1-yl]propionitrile], for which the IC50 in series [1] is below 20 nM.

The values above are taken from patent US10561657B2, “Pyrrolopyrimidine compound” (CENTAURUS BIOPHARMA CO., LTD., priority 2014, dated 2020).
